Tests used:
Type in all cases: in vivo
[1] = system: bromegrass, downy (downy bromegrass, Bromus tectorum); assay: Test C pre-/postemergence: bromegrass, downy
How it was run: (§1)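 Preemergence on seeds in loam/sand, postemergence on 2–18 cm (1–4-leaf) plants in peat-based medium; compounds in non-phytotoxic solvent with surfactant. After 13–15 days in greenhouse, visual rating versus controls, 0 (no effect) to 100 (complete control).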

[2] = system: foxtail, green (green foxtail, Setaria viridis); assay: Test C pre-/postemergence: foxtail, green
How it was run: as §1

[3] = system: surinam grass (Brachiaria decumbens); assay: Test C pre-/postemergence: surinam grass
How it was run: as §1

[4] = system: cocklebur (common cocklebur, Xanthium strumarium); assay: Test C pre-/postemergence: cocklebur
How it was run: as §1

[5] = system: goosegrass (Eleusine indica); assay: Test C pre-/postemergence: goosegrass
How it was run: as §1

[6] = system: nightshade (eastern black nightshade, Solanum ptycanthum); assay: Test C pre-/postemergence: nightshade; conditions: Preemergence
How it was run: as §1

[7] = system: barley (winter barley, Hordeum vulgare); assay: Test C postemergence: barley
How it was run: (§2)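 Pot-grown plants in peat/vermiculite medium sprayed postemergence at 2–18 cm height (1- to 4-leaf stage). Kept in greenhouse 13 to 15 days, then visually rated against untreated controls on a 0–100 scale (0 = no effect, 100 = complete control).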

[8] = system: canarygrass (Phalaris minor); assay: Test C postemergence: canarygrass
How it was run: as §2

[9] = system: windgrass (Apera spica-venti); assay: Test C postemergence: windgrass
How it was run: as §2

[10] = system: deadnettle (henbit deadnettle, Lamium amplexicaule); assay: Test C postemergence: deadnettle
How it was run: as §2

[11] = Postemergence, 31 g ai/ha, scale 0 to 100 (0 no effect, 100 complete control)
[12] = Postemergence, 62 g ai/ha, scale 0 to 100 (0 no effect, 100 complete control)
[13] = Postemergence, 125 g ai/ha, scale 0 to 100, 0 no effect, 100 complete control
[14] = Postemergence, 250 g ai/ha, scale 0 to 100
[15] = Preemergence, 31 g ai/ha, scale of 0 to 100, 0 is no effect, 100 is complete control
[16] = Preemergence, 62 g ai/ha, scale of 0 to 100, 0 is no effect, 100 is complete control
[17] = Preemergence, 125 g ai/ha, scale 0 to 100, 0 no effect, 100 complete control
[18] = Preemergence, 250 g ai/ha, scale 0 to 100, 0 no effect, 100 complete control
[19] = 125 g ai/ha, scale 0 to 100, 0 no effect, 100 complete control
[20] = 31 g ai/ha, scale 0 to 100 (0 no effect, 100 complete control)
[21] = 62 g ai/ha, scale 0 to 100 (0 no effect, 100 complete control)

Compound: Cc1nn(-c2ccc(C(F)(F)F)c(F)c2)nc1Oc1ccnc(C(F)(F)F)c1 [Compound 148]
- Plant response rating, Bromegrass, Downy [1, 11]: 45
- Plant response rating, Bromegrass, Downy [1, 12]: 55
- Plant response rating, Bromegrass, Downy [1, 13]: 60
- Plant response rating, Bromegrass, Downy [1, 14]: 65
- Plant response rating, Bromegrass, Downy [1, 15]: 5
- Plant response rating, Bromegrass, Downy [1, 16]: 40
- Plant response rating, Bromegrass, Downy [1, 17]: 50
- Plant response rating, Bromegrass, Downy [1, 18]: 80
- Plant response rating, Foxtail, Green [2, 11]: 80
- Plant response rating, Foxtail, Green [2, 12]: 98
- Plant response rating, Foxtail, Green [2, 13]: 100
- Plant response rating, Foxtail, Green [2, 14]: 100
- Plant response rating, Foxtail, Green [2, 15]: 95
- Plant response rating, Foxtail, Green [2, 16]: 95
- Plant response rating, Foxtail, Green [2, 17]: 95
- Plant response rating, Foxtail, Green [2, 18]: 95
- Plant response rating, Surinam Grass [3, 11]: 20
- Plant response rating, Surinam Grass [3, 12]: 20
- Plant response rating, Surinam Grass [3, 13]: 25
- Plant response rating, Surinam Grass [3, 14]: 30
- Plant response rating, Surinam Grass [3, 15]: 60
- Plant response rating, Surinam Grass [3, 16]: 75
- Plant response rating, Surinam Grass [3, 17]: 75
- Plant response rating, Surinam Grass [3, 18]: 100
- Plant response rating, Cocklebur [4, 11]: 85
- Plant response rating, Cocklebur [4, 12]: 98
- Plant response rating, Cocklebur [4, 13]: 98
- Plant response rating, Cocklebur [4, 15]: 10
- Plant response rating, Goosegrass [5, 12]: 15
- Plant response rating, Goosegrass [5, 13]: 25
- Plant response rating, Goosegrass [5, 14]: 40
- Plant response rating, Goosegrass [5, 15]: 90
- Plant response rating, Goosegrass [5, 16]: 95
- Plant response rating, Goosegrass [5, 17]: 98
- Plant response rating, Goosegrass [5, 18]: 100
- Plant response rating, Nightshade ([6]; 31 g ai/ha, scale of 0 to 100, 0 is no effect, 100 is complete control): 25
- Plant response rating, Nightshade ([6]; 62 g ai/ha, scale of 0 to 100, 0 is no effect, 100 is complete control): 60
- Plant response rating, Nightshade [6, 19]: 85
- Plant response rating, Nightshade ([6]; 250 g ai/ha, scale 0 to 100, 0 no effect, 100 complete control): 85
- Plant response rating, Barley [7, 20]: 35
- Plant response rating, Barley [7, 21]: 35
- Plant response rating, Barley [7, 19]: 40
- Plant response rating, Barley ([7]; 250 g ai/ha, scale 0 to 100): 45
- Plant response rating, Canarygrass [8, 20]: 40
- Plant response rating, Canarygrass [8, 21]: 60
- Plant response rating, Canarygrass [8, 19]: 95
- Plant response rating, Canarygrass ([8]; 250 g ai/ha, scale 0 to 100): 95
- Plant response rating, Windgrass [9, 20]: 60
- Plant response rating, Windgrass [9, 21]: 80
- Plant response rating, Windgrass [9, 19]: 98
- Plant response rating, Windgrass ([9]; 250 g ai/ha, scale 0 to 100): 100
- Plant response rating, Deadnettle [10, 20]: 95
- Plant response rating, Deadnettle [10, 21]: 95
- Plant response rating, Deadnettle [10, 19]: 100
- Plant response rating, Deadnettle ([10]; 250 g ai/ha, scale 0 to 100): 100
